Earlier results in patent US5370873A, “Therapeutic compounds derived from the neem tree” (priority 1992, dated 1994).
Read-outs that look alike come from different tables or passages of the source.

How the values were obtained:
[1] = in vivo
[2] = not given; remark: listed apart in the source
[3] = tested on: murine P-388 lymphocytic leukemia cell line

Neem oil
local or systemic side effects in human subjects [1]: no local or systemic side effects | local or systemic side effects in human subjects ([1]; po): no local or systemic side effects

nimbidin
systemic toxicity in rats: failed to demonstrate any systemic toxicity | systemic toxicity in dogs [2]: failed to demonstrate any systemic toxicity

1,2-diapoxyazadiradione
ED50, murine P-388 lymphocytic leukemia cell line [3]: 8.5 mg

CC(=O)O[C@@H]1C[C@H]2C(C)(C)C(=O)C=C[C@]2(C)[C@H]2CC[C@@]3(C)[C@H](c4ccoc4)OC(=O)[C@H]4O[C@]43[C@@]21C [gedunin]
inhibition of development of Plasmodium falciparum in vitro (Plasmodium falciparum): inhibit the development of the human malarial parasite Plasmodium falciparum in vitro

C/C=C(\C)C(=O)O[C@H]1C[C@@H](OC(C)=O)[C@@]2(C(=O)OC)CO[C@H]3[C@@H](O)[C@@](C)([C@]45O[C@@]4(C)[C@H]4C[C@@H]5O[C@@H]5OC=C[C@@]54O)[C@H]4[C@]1(CO[C@]4(O)C(=O)OC)[C@@H]32 [azadiractin]
insect feeding repellency (insect): very potent insect feeding repellents

7-acetyl neotrichilenone
ED50, murine P-388 lymphocytic leukemia cell line [3]: 10 mg
